In ChEMBL document CHEMBL5107986, “Small molecule NS5B RdRp non-nucleoside inhibitors for the treatment of HCV infection: A medicinal chemistry perspective” (Eur J Med Chem, 2022):

How the values were obtained:
Type in all cases: functional, organism-based, Hepacivirus hominis
[1] = tested on: Hepatitis C virus; assay: Antiviral activity against HCV GT1b assessed as reduction in viral replication
[2] = tested on: Hepatitis C virus; assay: Antiviral activity against HCV GT1b 316N assessed as reduction in viral replication
[3] = tested on: Hepatitis C virus; assay: Antiviral activity against intrinsic HCV GT1a assessed as reduction in viral replication
[4] = tested on: Hepatitis C virus; assay: Antiviral activity against HCV GT1b C316Y assessed as reduction in viral replication
[5] = tested on: Hepatitis C virus; assay: Antiviral activity against intrinsic HCV GT2a assessed as reduction in viral replication
[6] = tested on: Hepatitis C virus; assay: Antiviral activity against HCV GT1b assessed as inhibition of viral replication

**Q.** For `CNC(=O)c1c(-c2ccc(F)cc2)oc2cc(N(c3cc(Cl)c4c(c3)COB4O)S(C)(=O)=O)c(C3CC3)cc12`, which EC50 [1] is on record?
**A.** 2.5 nM

**Q.** And the EC50 [2]?
**A.** 2.5 nM

**Q.** And the EC50 [3]?
**A.** 1.3 nM

**Q.** How did the EC50 [1] turn out when `CNC(=O)c1c(-c2ccc(F)cc2)oc2cc(N(C)S(C)(=O)=O)c(-c3ccccc3)cc12` was run?
**A.** 120 nM

**Q.** How did the EC50 [1] turn out when `CNC(=O)c1c(-c2ccc(F)cc2)oc2cc(N(CCO)S(C)(=O)=O)c(-c3ccccc3)cc12` was run?
**A.** 62 nM

**Q.** How did the EC50 [3] turn out when `CC(C)(C)C#Cc1cc(N(C(=O)[C@H]2CC[C@H](C)CC2)[C@H]2CC[C@](O)(CO[C@H]3CCOC3)CC2)c(C(=O)O)s1` was run?
**A.** 2.2 nM

**Q.** How did the EC50 [3] turn out when `CC1=CC[C@H](C(=O)N(c2cc(C#CC(C)(C)C)sc2C(=O)O)C(C)C)CC1` was run?
**A.** 2.2 nM

**Q.** Which EC50 [1] does the source give for `CNC(=O)c1c(-c2ccc(F)cc2)oc2cc(N(Cc3ccc(B(O)O)c(F)c3)S(C)(=O)=O)c(C3CC3)cc12` here?
**A.** 1.7 nM

**Q.** What about the EC50 [4] of the same molecule?
**A.** 1.9 nM

**Q.** What does the source list for `CNC(=O)c1c(-c2ccc(F)cc2)oc2cc(N(C)S(C)(=O)=O)c(-c3ccc(OC)c(-c4nc5c(F)cccc5o4)c3)cc12`?
**A.** EC50 [1]: 3.1 nM; EC50 [4]: 9.2 nM

**Q.** How did the EC50 [1] turn out when `CNC(=O)c1c(-c2ccc(F)cc2)oc2cc(N(CCO)S(C)(=O)=O)c(C3CC3)cc12` [NESBUVIR] was run?
**A.** 18 nM

**Q.** And the EC50 [2]?
**A.** 170 nM

**Q.** `CC(C)(C)C#Cc1cc(N(C(=O)[C@H]2CC[C@H](C)CC2)[C@H]2CC[C@H](Oc3cccnc3)CC2)c(C(=O)O)s1` was tested. Which EC50 [3] did it give?
**A.** 3.6 nM

**Q.** How did the EC50 [1] turn out when `CNC(=O)c1c(-c2ccc(F)cc2)oc2cc(N(C)S(C)(=O)=O)c(-c3ccc(OC)cc3)cc12` was run?
**A.** 16 nM

**Q.** What about the EC50 [5] of the same molecule?
**A.** 60 nM

**Q.** `CC(C)N(c1cc(C#CC(C)(C)C)sc1C(=O)O)C(=O)[C@H]1CC[C@H](C)CC1` was tested. Which EC50 [3] did it give?
**A.** 5.5 nM

**Q.** With `CC(C)(C)C#Cc1cc(N(C(=O)[C@H]2CC[C@H](C)CC2)[C@H]2CC[C@H](OC3CCOC3)CC2)c(C(=O)O)s1` (stereo partly specified) as the molecule, how does the EC50 [3] read?
**A.** 8.1 nM

**Q.** Which IC50 [6] does the source give for `O=C1N/C(=N\c2nnc(-c3ccc(Cl)cc3)s2)S/C1=C\c1c(Cl)cccc1Cl` here?
**A.** 5600 nM

**Q.** For `COc1ccc2c(c1)C=C1Cn3c-2c(C2CCCCC2)c2ccc(cc23)C(=O)NS(=O)(=O)N(C)CCCCN(C)C1=O`, which EC50 [1] is on record?
**A.** 75 nM

**Q.** And the IC50 [6]?
**A.** 26 nM

**Q.** For `CNC(=O)c1c(-c2ccc(F)cc2)oc2cc(N(C)S(C)(=O)=O)c(-c3cccc(CNS(=O)(=O)c4cccc(OC)c4)c3)cc12`, which EC50 [1] is on record?
**A.** 1 nM

**Q.** What about the EC50 [5] of the same molecule?
**A.** 6 nM

**Q.** `CC1=CC[C@H](C(=O)N(c2cc(C#CC(C)(C)C)sc2C(=O)O)[C@H]2CC[C@](O)(CO[C@H]3CCOC3)CC2)CC1` [RADALBUVIR] was tested. Which EC50 [1] did it give?
**A.** 6 nM

**Q.** And the EC50 [3]?
**A.** 2.9 nM

**Q.** With `CNC(=O)c1c(-c2ccc(F)cc2)oc2cc(N(C)S(C)(=O)=O)c(-c3ccc4c(n3)-c3cc5c(F)cccc5n3CO4)cc12` [MK-8876] as the molecule, how does the EC50 [1] read?
**A.** 2.2 nM

**Q.** And the EC50 [4]?
**A.** 7.3 nM

**Q.** What about the EC50 [5] of the same molecule?
**A.** 2.7 nM

**Q.** `O=C1N/C(=N\c2nnc(-c3ccc(F)cc3)s2)S/C1=C\c1c(Cl)cccc1Cl` was tested. Which IC50 [6] did it give?
**A.** 19800 nM

**Q.** Which results are given for `Cn1c(-c2ncc(Br)cn2)c(C2CCCC2)c2ccc(C(=O)NC3(c4nc5ccc(/C=C/C(=O)O)cc5[nH]4)CCC3)cc21`?
**A.** EC50 [1]: 11 nM; IC50 [6]: 50 nM
